Assay results taken from ChEMBL document CHEMBL1201862, “PubChem BioAssay data set” (2004).
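Each compound was tested at five concentrations against cells in 96-well plates for 48 hours. The concentration for 50% growth inhibition is given as GI50.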 Activity calls are given as the source filed them. Cut-off read from the data, not from the text of the source: active = GI50 up to about 1.1 µM and inactive = higher.

Experiments:
Test in all cases: inhibition of tumour cell growth, NCI panel, 48 h
BT-549 = system: BT-549
CAKI-1 = system: CAKI-1
CCRF-CEM = system: CCRF-CEM
HCT-116 = system: HCT-116
HCT-15 = system: HCT-15
HL-60 = system: HL-60
HOP-62 = system: HOP-62
K562 = system: K562
LOX IMVI = system: LOX IMVI
M14 = system: M14
MDA-N = system: MDA-N
NCI-H226 = system: NCI-H226
NCI/ADR-RES = system: NCI/ADR-RES
OVCAR-4 = system: OVCAR-4
SF-268 = system: SF-268
SK-MEL-5 = system: SK-MEL-5
SN12C = system: SN12C
SW-620 = system: SW-620
TK-10 = system: TK-10
UACC-62 = system: UACC-62

SMILES | GI50 (BT-549) | GI50 (CAKI-1) | GI50 (CCRF-CEM) | GI50 (HCT-116) | GI50 (HCT-15) [µM] | GI50 (HL-60) | GI50 (HOP-62) | GI50 (K562) | GI50 (LOX IMVI) | GI50 (M14) | GI50 (MDA-N) | GI50 (NCI-H226) | GI50 (NCI/ADR-RES) | GI50 (OVCAR-4) | GI50 (SF-268) | GI50 (SK-MEL-5) | GI50 (SN12C) | GI50 (SW-620) | GI50 (TK-10) | GI50 (UACC-62)
Nc1ncnc2c1ncn2C1OC(CO)C(O)C(O)C1O (centres undefined) | > 100 µM (inactive) | > 100 µM (inactive) | > 100 µM (inactive) | > 100 µM (inactive) | > 100 | > 100 µM (inactive) | > 100 µM (inactive) | > 100 µM (inactive) | > 100 µM (inactive) | > 100 µM (inactive) | > 100 µM (inactive) | > 100 µM (inactive) | > 100 µM (inactive) | > 100 µM (inactive) | > 100 µM (inactive) | > 100 µM (inactive) | > 100 µM (inactive) | > 100 µM (inactive) | > 100 µM (inactive) | 
CN(CCNC(=O)c1nn(C)c2c1Cc1ccccc1-2)CCNC(=O)c1nn(C)c2c1Cc1ccccc1-2 | 16.2 µM (inactive) | 18.4 µM (inactive) |  | 15.1 µM (inactive) | 16.7 | 12.9 µM (inactive) | 15.4 µM (inactive) | 12.7 µM (inactive) | 16.4 µM (inactive) | 12.6 µM (inactive) | 14.5 µM (inactive) | 18.3 µM (inactive) | 21.4 µM (inactive) | 17.6 µM (inactive) | 14.7 µM (inactive) | 12.1 µM (inactive) | 14.9 µM (inactive) | 18.7 µM (inactive) | 15.7 µM (inactive) | 15.2 µM (inactive)
Cc1cc(C)n(CN(CCCCO)Cn2nc(C)cc2C)n1 | 23 µM (inactive) | 34.4 µM (inactive) | 0.178 µM (active) | 20 µM (inactive) | 17.5 | 23.3 µM (inactive) | 21.8 µM (inactive) | 19.9 µM (inactive) | 22.8 µM (inactive) | 18.5 µM (inactive) | 17.5 µM (inactive) |  | 18.2 µM (inactive) | 24.7 µM (inactive) | 25.6 µM (inactive) | 34.1 µM (inactive) | 26 µM (inactive) | 21.7 µM (inactive) | 73.8 µM (inactive) | 19.1 µM (inactive)
CCOC(=O)c1cc(=O)c2cccc3c2n1CCS3 | 42.9 µM (inactive) | > 100 µM (inactive) | > 100 µM (inactive) | > 100 µM (inactive) | > 100 | > 100 µM (inactive) | > 100 µM (inactive) |  | > 100 µM (inactive) | > 100 µM (inactive) | > 100 µM (inactive) | > 100 µM (inactive) | > 100 µM (inactive) |  | > 100 µM (inactive) | > 100 µM (inactive) | > 100 µM (inactive) | > 100 µM (inactive) | > 100 µM (inactive) | > 100 µM (inactive)
C[C@H]1O[C@@H](C(C)(C)C)OC(=O)[C@@H]1C(OC(=O)c1ccccc1)c1cccc2ccccc12 (some centres undefined) | > 100 µM (inactive) | > 100 µM (inactive) | > 100 µM (inactive) | > 100 µM (inactive) | > 100 |  | > 100 µM (inactive) | > 100 µM (inactive) | > 100 µM (inactive) | > 100 µM (inactive) | > 100 µM (inactive) | 8.87 µM (inactive) | 56.1 µM (inactive) | > 100 µM (inactive) | > 100 µM (inactive) | > 100 µM (inactive) | > 100 µM (inactive) | > 100 µM (inactive) | > 100 µM (inactive) | > 100 µM (inactive)
CC1=C(/C=C/Cl)CC(Cl)C(C)(Cl)C1 (centres undefined) | > 100 µM (inactive) | > 100 µM (inactive) | 19.6 µM (inactive) | > 100 µM (inactive) | > 100 | 20.4 µM (inactive) |  | > 100 µM (inactive) | > 100 µM (inactive) | > 100 µM (inactive) | > 100 µM (inactive) | > 100 µM (inactive) | > 100 µM (inactive) | 83.8 µM (inactive) | > 100 µM (inactive) | > 100 µM (inactive) | > 100 µM (inactive) | > 100 µM (inactive) | > 100 µM (inactive) | > 100 µM (inactive)
COc1cc(COC(=O)N[C@H](C(=O)O)C(C)(C)C)c([N+](=O)[O-])cc1OC | > 100 µM (inactive) |  | > 100 µM (inactive) | > 100 µM (inactive) | > 100 | > 10 µM (inactive) | > 100 µM (inactive) | > 100 µM (inactive) |  | > 100 µM (inactive) | > 100 µM (inactive) | > 100 µM (inactive) | > 100 µM (inactive) |  | > 100 µM (inactive) | > 100 µM (inactive) | > 100 µM (inactive) | > 100 µM (inactive) | > 100 µM (inactive) | > 100 µM (inactive)
CN(C)Cc1ccc(-c2cc3onc(-c4ccccc4)c3c(=O)n2C)cc1 | 38.5 µM (inactive) | 85.3 µM (inactive) |  | 14.4 µM (inactive) | 20.5 | 0.711 µM (active) | 20.7 µM (inactive) | 17.7 µM (inactive) | 17.9 µM (inactive) | 15.1 µM (inactive) | 17.6 µM (inactive) | > 100 µM (inactive) | 41.5 µM (inactive) | 84.9 µM (inactive) | 31.2 µM (inactive) | 17.9 µM (inactive) | 55.6 µM (inactive) | 21.3 µM (inactive) | 24.1 µM (inactive) | 25.9 µM (inactive)
O=C1C=C(c2c(-c3ccccc3)[nH]c3ccccc23)C(=O)N1c1ccccc1 | 6.73 µM (inactive) | 5.53 µM (inactive) | 4.02 µM (inactive) | 6.49 µM (inactive) | 5.38 | 3.96 µM (inactive) | 0.135 µM (active) | 7.41 µM (inactive) | 3.77 µM (inactive) | 11.4 µM (inactive) | 3.89 µM (inactive) | 22.6 µM (inactive) | 8.45 µM (inactive) |  | 4.63 µM (inactive) | 8.75 µM (inactive) | 6.65 µM (inactive) | 5.12 µM (inactive) | 12.7 µM (inactive) | 10.7 µM (inactive)
COc1ccc(C(O)c2nccn2C)c(OC)c1 (centres undefined) | > 100 µM (inactive) | > 100 µM (inactive) | > 100 µM (inactive) | > 100 µM (inactive) | > 100 | > 100 µM (inactive) | > 100 µM (inactive) | > 100 µM (inactive) |  | > 100 µM (inactive) | > 100 µM (inactive) | > 100 µM (inactive) | > 100 µM (inactive) | > 100 µM (inactive) | > 100 µM (inactive) | 86.3 µM (inactive) | > 100 µM (inactive) | > 100 µM (inactive) | > 100 µM (inactive) | > 100 µM (inactive)
COc1ccccc1Cn1nc(OC)c2cc([N+](=O)[O-])ccc21 | 16.9 µM (inactive) | 15 µM (inactive) | > 100 µM (inactive) | 32.7 µM (inactive) | > 70.1 | > 100 µM (inactive) | 4.48 µM (inactive) | > 100 µM (inactive) | > 100 µM (inactive) | > 100 µM (inactive) | > 100 µM (inactive) | 42.1 µM (inactive) | 59.3 µM (inactive) | 13.4 µM (inactive) | 13.1 µM (inactive) | > 53.7 µM (inactive) | > 69 µM (inactive) | > 100 µM (inactive) | 12.5 µM (inactive) | 
Oc1ccc([I+]c2ccccc2)cc1O | 8.36 µM (inactive) | > 100 µM (inactive) | 9.46 µM (inactive) | 34.4 µM (inactive) | 27.7 | 16 µM (inactive) | 34.2 µM (inactive) | 21.6 µM (inactive) | 30.3 µM (inactive) |  | 35.3 µM (inactive) | > 100 µM (inactive) | 28.9 µM (inactive) | 25.8 µM (inactive) | 42.8 µM (inactive) | 36 µM (inactive) | 40.5 µM (inactive) | 18.1 µM (inactive) | > 100 µM (inactive) | 
C(=N\Nc1nnc(-c2nnc(N/N=C/c3ccccc3)o2)o1)/c1ccccc1 | > 10 µM (inactive) | > 10 µM (inactive) | > 10 µM (inactive) | > 10 µM (inactive) | > 10 | > 10 µM (inactive) | > 10 µM (inactive) | > 10 µM (inactive) |  | > 10 µM (inactive) | > 10 µM (inactive) | > 10 µM (inactive) | > 10 µM (inactive) | > 10 µM (inactive) | > 10 µM (inactive) | > 10 µM (inactive) | > 10 µM (inactive) | > 10 µM (inactive) | > 10 µM (inactive) | > 10 µM (inactive)
CN(C)c1cc[n+](-c2nc([N-]C(=O)C(F)(F)F)nc3c2ncn3C2CC(O)C(CO)O2)cc1 (centres undefined) | > 100 µM (inactive) |  | > 100 µM (inactive) | > 100 µM (inactive) | > 100 | > 100 µM (inactive) | > 100 µM (inactive) | > 100 µM (inactive) | > 100 µM (inactive) | > 100 µM (inactive) | > 100 µM (inactive) | > 100 µM (inactive) | > 100 µM (inactive) | > 100 µM (inactive) | > 100 µM (inactive) | > 100 µM (inactive) | > 100 µM (inactive) | > 100 µM (inactive) | > 100 µM (inactive) | > 100 µM (inactive)
O=c1cc(CSc2c(-c3ccccc3)c(=O)n(-c3ccccc3)c(=S)n2-c2ccccc2)[nH]c(=O)[nH]1 | > 100 µM (inactive) | > 100 µM (inactive) | > 100 µM (inactive) | > 100 µM (inactive) | > 100 | > 100 µM (inactive) | > 100 µM (inactive) | > 100 µM (inactive) |  | > 100 µM (inactive) | > 100 µM (inactive) |  | > 100 µM (inactive) |  | > 100 µM (inactive) | > 100 µM (inactive) | > 100 µM (inactive) | > 100 µM (inactive) | > 100 µM (inactive) | > 100 µM (inactive)
